Measurements published in patent publication US20090311237A1, “Combination therapy using a soluble hyaluronidase and a bisphosphonate” (priority 2008, published 2009).
“And” between values parts separate entries of the source, which are not always exact repeats. Equal values may be shown once.

Experiment: Phase 1 Stage 1 clinical pharmacokinetics of SC ZA co-administered with rHuPH20
Assay type: in vivo, human
Set-up: key to Mean Conc. / Median Conc.: BLQ = blow limit for quantitation
Conditions: serum; for Zoledronic Acid Concentration: individual subjects; for Mean Conc. / Median Conc.: n=3
Description: A pharmacokinetic study of zoledronic acid (ZA) co-administered with rHuPH20 in human subjects was conducted. The primary objective of the study was to determine the bioavailability of zoledronic acid dosed via subcutaneous (SC) co-administration with human recombinant hyaluronidase PH20 (rHuPH20). […] The patients were administered the prescribed dosage formulations as follows: Cohorts 1-5 were administered a single subcutaneous infusion in a dosage volume of 100 ml at a rate of 3 mL/min. […] The dosing solution is administered via needle or catheter into the SC space of the left anterior thigh (midway between the anterior iliac crest and the cephalad border of the patella). For cohorts 1-5, the dosing solutions were administered by a controlled rate infusion pump at approximately 3 mL/minute. […] The dosing solutions were administered by syringe push bolus injection. […] Serum concentration of ZA was determined using a qualified LC-MS-MS assay after derivatization with diazomethane (Zhu, L S et al. (2006) Rapid Commun. […] The assay range was from 2.0 to 400 ng/mL with a lower limit of quantitation (LLOQ) at 2.0 ng/mL. […] Non-compartmental analysis was used for derivation of primary and secondary pharmacokinetic (PK) parameters. […] Summary statistics (mean, standard deviation, and median) were calculated using JMP or Microsoft Excel.

[1] = ZA 0.5 mg SC infusion + 24000 Units rHuPH20, 24 h post infusion
[2] = ZA 0.5 mg SC infusion + 24000 Units rHuPH20, 48 h post infusion
[3] = ZA 1 mg SC infusion + 24000 Units rHuPH20, 48 h post infusion

## O=P(O)(O)C(O)(Cn1ccnc1)P(=O)(O)O [ZA, 1-hydroxy-2-(1H-imidazol-1-yl)ethylidene-1,1-bisphosphonic acid]
ZA 0.5 mg SC infusion + 24000 Units rHuPH20, 10 min post infusion, listed as Zoledronic Acid
  Zoledronic Acid Concentration: 16.80 ng/mL
ZA 0.5 mg SC infusion + 24000 Units rHuPH20, 0.5 h post infusion, listed as Zoledronic Acid
  Zoledronic Acid Concentration: 16.50 ng/mL
ZA 0.5 mg SC infusion + 24000 Units rHuPH20, 1 h post infusion, listed as Zoledronic Acid
  Zoledronic Acid Concentration: 15.00 ng/mL
[1]
  Zoledronic Acid Concentration: BLQ < (0.500) ng/mL
  Mean Conc.: BLQ
  Median Conc.: BLQ
[2]
  Zoledronic Acid Concentration: BLQ < (0.500) ng/mL
  Mean Conc.: BLQ
  Median Conc.: BLQ
ZA 1 mg SC infusion + 24000 Units rHuPH20, 0 h post infusion, listed as Zoledronic Acid
  Zoledronic Acid Concentration: 15.30 ng/mL
ZA 1 mg SC infusion + 24000 Units rHuPH20, 10 min post infusion, listed as Zoledronic Acid
  Zoledronic Acid Concentration: 25.00 ng/mL
ZA 1 mg SC infusion + 24000 Units rHuPH20, 0.5 h post infusion, listed as Zoledronic Acid
  Zoledronic Acid Concentration: 23.00 ng/mL
ZA 1 mg SC infusion + 24000 Units rHuPH20, 1 h post infusion, listed as Zoledronic Acid
  Zoledronic Acid Concentration: 19.40 ng/mL
ZA 1 mg SC infusion + 24000 Units rHuPH20, 2 h post infusion, listed as Zoledronic Acid
  Zoledronic Acid Concentration: 17.00 ng/mL
ZA 1 mg SC infusion + 24000 Units rHuPH20, 4 h post infusion, listed as Zoledronic Acid
  Zoledronic Acid Concentration: 10.20 ng/mL
ZA 1 mg SC infusion + 24000 Units rHuPH20, 6 h post infusion, listed as Zoledronic Acid
  Zoledronic Acid Concentration: 5.47 ng/mL
ZA 1 mg SC infusion + 24000 Units rHuPH20, 8 h post infusion, listed as Zoledronic Acid
  Zoledronic Acid Concentration: 3.17 ng/mL
ZA 1 mg SC infusion + 24000 Units rHuPH20, 12 h post infusion, listed as Zoledronic Acid
  Zoledronic Acid Concentration: 1.30 ng/mL
ZA 1 mg SC infusion + 24000 Units rHuPH20, 24 h post infusion, listed as Zoledronic Acid
  Zoledronic Acid Concentration: 0.51 ng/mL
[3]
  Zoledronic Acid Concentration: BLQ < (0.500) ng/mL
  Mean Conc.: BLQ
  Median Conc.: BLQ
ZA 2 mg SC infusion + 24000 Units rHuPH20, 0 h post infusion, listed as Zoledronic Acid
  Zoledronic Acid Concentration: 39.60 ng/mL and 40.80 ng/mL
ZA 2 mg SC infusion + 24000 Units rHuPH20, 10 min post infusion, listed as Zoledronic Acid
  Zoledronic Acid Concentration: 46.30 ng/mL and 46.00 ng/mL
ZA 2 mg SC infusion + 24000 Units rHuPH20, 0.5 h post infusion, listed as Zoledronic Acid
  Zoledronic Acid Concentration: 47.30 ng/mL and 48.60 ng/mL
ZA 2 mg SC infusion + 24000 Units rHuPH20, 1 h post infusion, listed as Zoledronic Acid
  Zoledronic Acid Concentration: 53.00 ng/mL and 58.70 ng/mL
ZA 2 mg SC infusion + 24000 Units rHuPH20, 2 h post infusion, listed as Zoledronic Acid
  Zoledronic Acid Concentration: 40.10 ng/mL and 42.20 ng/mL
ZA 2 mg SC infusion + 24000 Units rHuPH20, 4 h post infusion, listed as Zoledronic Acid
  Zoledronic Acid Concentration: 20.30 ng/mL and 23.00 ng/mL
ZA 2 mg SC infusion + 24000 Units rHuPH20, 6 h post infusion, listed as Zoledronic Acid
  Zoledronic Acid Concentration: 7.71 ng/mL and 8.93 ng/mL
ZA 2 mg SC infusion + 24000 Units rHuPH20, 8 h post infusion, listed as Zoledronic Acid
  Zoledronic Acid Concentration: 3.34 ng/mL and 4.81 ng/mL
ZA 2 mg SC infusion + 24000 Units rHuPH20, 12 h post infusion, listed as Zoledronic Acid
  Zoledronic Acid Concentration: 1.64 ng/mL and 2.07 ng/mL
ZA 2 mg SC infusion + 24000 Units rHuPH20, 24 h post infusion, listed as Zoledronic Acid
  Zoledronic Acid Concentration: 0.85 ng/mL and 0.98 ng/mL
ZA 2 mg SC infusion + 24000 Units rHuPH20, 48 h post infusion, listed as Zoledronic Acid
  Zoledronic Acid Concentration: BLQ < (0.500) ng/mL
ZA 2 mg SC infusion + 24000 Units rHuPH20, 48 h post infusion
  Median Conc.: BLQ
ZA 5 mg SC infusion + 24000 Units rHuPH20, 0 h post infusion, listed as Zoledronic Acid
  Zoledronic Acid Concentration: 82.30 ng/mL and 53.50 ng/mL and 130.00 ng/mL
ZA 5 mg SC infusion + 24000 Units rHuPH20, 10 min post infusion, listed as Zoledronic Acid
  Zoledronic Acid Concentration: 76.10 ng/mL and 132.00 ng/mL
ZA 5 mg SC infusion + 24000 Units rHuPH20, 0.5 h post infusion, listed as Zoledronic Acid
  Zoledronic Acid Concentration: 112.00 ng/mL and 132.00 ng/mL
ZA 5 mg SC infusion + 24000 Units rHuPH20, 1 h post infusion, listed as Zoledronic Acid
  Zoledronic Acid Concentration: 113.00 ng/mL and 116.00 ng/mL
ZA 5 mg SC infusion + 24000 Units rHuPH20, 2 h post infusion, listed as Zoledronic Acid
  Zoledronic Acid Concentration: 89.80 ng/mL and 86.50 ng/mL
ZA 5 mg SC infusion + 24000 Units rHuPH20, 4 h post infusion, listed as Zoledronic Acid
  Zoledronic Acid Concentration: 42.80 ng/mL and 61.70 ng/mL
ZA 5 mg SC infusion + 24000 Units rHuPH20, 6 h post infusion, listed as Zoledronic Acid
  Zoledronic Acid Concentration: 22.30 ng/mL and 27.80 ng/mL
ZA 5 mg SC infusion + 24000 Units rHuPH20, 8 h post infusion, listed as Zoledronic Acid
  Zoledronic Acid Concentration: 11.00 ng/mL and 12.50 ng/mL
ZA 5 mg SC infusion + 24000 Units rHuPH20, 12 h post infusion, listed as Zoledronic Acid
  Zoledronic Acid Concentration: 4.61 ng/mL and 5.00 ng/mL
ZA 5 mg SC infusion + 24000 Units rHuPH20, 24 h post infusion, listed as Zoledronic Acid
  Zoledronic Acid Concentration: 2.98 ng/mL and 2.23 ng/mL
ZA 5 mg SC infusion + 24000 Units rHuPH20, 48 h post infusion, listed as Zoledronic Acid
  Zoledronic Acid Concentration: 1.63 ng/mL and 1.74 ng/mL
